From US20250281610A1, “P2RY2 ACTIVITY MODULATORS” (Deutsches Krebsforschungszentrum Stiftung des öffentlichen …, priority 2022, published 2025) come the findings set out here.

This assay relates to SW480 cells. The assay can be described thus: Viability of SW480 cells in co-culture with CEA-specific CAR-T cells (CellTiter-Blue). The assay is classed as cell-based, human. The conditions noted are these: 10 μM AR-C, 48 hours (FIG. 20). On the procedure: FIG. 20. Effects of P2RY2 agonist and P2RY2 antagonist on cancer cell viability in T cell-cancer cell co-cultures. T cells transduced with a CEA-specific CAR (CAR-T) were co-cultured with genetically edited SW480 cells for 48 hours in the absence or presence of 40 μM ATP, 20 μM ATPγS, 10 μM Diquafosol, 5 μM Denufosol and 10 μM AR-C 118925XX (AR-C). Control cells: SW480 cells transduced with non-targeting sgRNA and Cas9 (gNT); P2RY2 deficient cells: SW480 cells transduced with P2RY2-targeting sgRNA and Cas9 (gP2RY2-3, gP2RY2-4); B7-H3 (CD276) deficient cells: SW480 cells transduced with B7-H3-targeting sgRNA and Cas9 (gCD276-1); P2RY2 and B7-H3 double deficient cells: SW480 cells transduced with P2RY2-targeting sgRNA, B7-H3-targeting sgRNA, and Cas9 (gCD276-1 gP2RY2-3 DKO, gCD276-1 gP2RY2-4 DKO); P2RY2 overexpression cells: SW480 cells transduced with the open reading frame of P2RY2 (P2RY2-OE); B7-H3 overexpression cells: SW480 cells transduced with the open reading frame of CD276 (CD276-OE). […] Normalized cell viability of the SW480 cells was determined by the CellTiter-Blue® Cell Viability (Promega) assay after co-culture with CEA CAR-T cells. The end-point cell viability was normalized to SW480 cells, as measured using the CellTiter-Blue® Cell Viability (Promega) assay, in cultures without T cells. […]

Consider `Cc1ccc2c(c1)C=Cc1cc(C)ccc1C2c1cn(Cc2ccc(C(=O)Nc3nn[nH]n3)o2)c(=O)[nH]c1=S` [AR-C 118925XX], for which the tumor cell viability entry was “reduced”.
